Data as given in patent publication US6638966B2 (University of Iowa Research Foundation, priority 2000, dated 2003).

Assays:
[1] = test system: rats; test: Cumulative i.v. doses: indices of anesthesia in rats (righting reflex, grip strength, eyelash reflex, paw withdrawal threshold); format: in vivo, rat; conditions: for estimated ED95 (and 95% CI) for loss of righting reflex: cumulative i.v. injection of divided doses; for effect on righting reflex, grip strength and eyelash reflex: three cumulative i.v. doses about 1 min apart: 6.67 mg/kg thiopental, 3.3 mg/kg propofol, 70 mg/kg melatonin
Experimental: (§1) After the final cumulative dose, measurements of anesthesia end-points were made at fixed intervals for an additional 20 minutes. […] Measurements of anesthesia end-points were made in these rats at fixed intervals for 20 minutes. Righting reflex was scored on a four-point scale (1=immediate/brisk, both feet under the rat; 2=complete, but slower than normal; 3=slow, feet not placed under body; and 4=absent). The threshold pressure (mm Hg) at which the rat withdrew or vocalized after pinch of one hindpaw was measured. For paw pinch, a subminiature, very low profile load cell Omega part number LCKD-1KG, measurement range of 0-1 kg) (OMEGA Engineering, INC., Stamford, Conn.) was used to measure the amount of pressure applied to the rat's paw. The action of compressing the load cell between the faces of the sponge clamp assembly results in a change in impedance within the load cell, and this in turn, was then converted to mm Hg pressure by the monitor. The presence or absence of eyelash reflex was noted on a three-point scale (1=normal, 2=weak; and 3=absent). The strength of grip by the forepaws was determined on a four-point scale (0=absent, 1=weak, 2=moderate and 3=strong).
(§2) Thiopental was purchased from Abbott Laboratories (Northern Chicago, Ill.). Propofol was purchased from Zeneca Pharmaceuticals (Wilmington, Del.). […] Thiopental and propofol were dissolved in saline and Intralipid™ respectively. […] For the bolus injections, the volume of drug injected ranged from 0.6 to 0.75 ml.

[2] = test system: rats; test: Single bolus i.v. injection: time course of indices of anesthesia in rats; format: in vivo, rat; conditions: for time for which loss of righting reflex and grip strength was maximal: single i.v. bolus: 10 mg/kg propofol; for time for which loss of righting reflex and grip strength was maximal / effect on paw withdrawal threshold / effect on righting reflex and grip strength: 275 mg/kg melatonin; for effect on paw withdrawal threshold / effect on righting reflex and grip strength / time by which loss of righting reflex and grip strength resolved: single i.v. bolus: 20 mg/kg thiopental, 10 mg/kg propofol; for time by which loss of righting reflex and grip strength resolved: 275 mg/kg melatonin (near baseline values)
Experimental: as §1, §2

[3] = test system: patients; conditions: low-level doses sublingually, British Journal of Anesthesia 82(6):875-80(1999); cited from earlier work
[4] = test system: rats; conditions: rat, in vivo, iv
[5] = Solubility of melatonin in 1-methyl-2-pyrrolidinone/propylene glycol/water solvent; format: physicochemical; conditions: solvent: 1 volume 1-methyl-2-pyrrolidinone, 1 volume propylene glycol, 2 volumes water
From the text: The volume ratios here expressed are preferred but generally can be within the range of 25% or less by volume of 1-methyl-2-pyrrolidinone.

[6] = test system: male Sprague-Dawley rats; test: Anesthetic effect of melatonin given through a jugular catheter to rats (Intralipid and cyclodextrin preparations); format: in vivo, rat; conditions: for anesthetic effect (righting reflex) / anesthetic effect (righting reflex, eyelash reflex, hind paw pressure): 50 mg/ml
Experimental: All experiments were carried out in male Sprague-Dawley rats (300-350 g). Rats were maintained on a 12 hour light/12 hour dark cycle with free access to food and water. All surgical procedures were performed under sterile conditions (skin preparation, sterile filed drape, gloves, mask, etc.). All instruments and materials were ethylene oxide sterilized. Non-fasting adult male Sprague Dawley rats (˜300 gm) were anesthetized with halothane in oxygen and weighed. The hair over the ventral neck and over the back (between the scapulae) was removed with an electric razor. In the supine position the ventral neck was washed with povidone-iodine, followed by a 3-cm skin incision, just left of mid-line. All bleeding points were cauterized. Both the left jugular vein and left common carotid artery were isolated via blunt dissection. The left jugular vein was cannulated with a heparinized (20 U/ml) saline-filled silastic catheter (0.012-in ID, 0.025-in OD) advanced ˜3-cm into the right atrium. The jugular catheter was secured to the vein with 4-0 silk at the point of insertion, as well as at the rostral jugular ligature. After implantation of intravascular catheters, rats were housed in individual stainless steel cages. […] Crystalline Melatonin powder was obtained from Sigma (Sigma Chemical Co. St. Louis, Mo.).

[7] = Anesthetic effect compared with melatonin; conditions: in vivo
[8] = Rat 1, 315 mg/kg, in 40% cyclodextrin
[9] = Rat 2, 374 mg/kg, in 40% cyclodextrin

## CC(C)c1cccc(C(C)C)c1O [propofol]
[1]
  estimated ED95 (and 95% CI) for loss of righting reflex: 14.9 (6.4-34.9) mg/kg
  effect on righting reflex, grip strength and eyelash reflex: progressive loss of righting reflex, grip strength and eyelash reflex
[2]
  time for which loss of righting reflex and grip strength was maximal: 5 min
  effect on paw withdrawal threshold: significant increase in paw withdrawal threshold of similar duration
  effect on righting reflex and grip strength: immediate loss of righting reflex and grip strength
  time by which loss of righting reflex and grip strength resolved: ≤ 10 min

## CCCC(C)C1(CC)C(=O)NC(=S)NC1=O (stereo not drawn) [thiopental]
[1]
  estimated ED95 (and 95% CI) for loss of righting reflex: 23.8 (15.4-36.7) mg/kg
  effect on righting reflex, grip strength and eyelash reflex: progressive loss of righting reflex, grip strength and eyelash reflex
[2]; single i.v. bolus 20 mg/kg
  time at which loss of righting reflex and grip strength was maximal: 1 min
[2]
  effect on paw withdrawal threshold: not accompanied by a change in paw withdrawal threshold
  effect on righting reflex and grip strength: immediate loss of righting reflex and grip strength
  time by which loss of righting reflex and grip strength resolved: ≤ 15 min

## COc1ccc2[nH]cc(CCNC(C)=O)c2c1 [melatonin, N-acetyl-5-methoxytryptamine]
[3]
  anxiety and sedation before operation: significant decrease in anxiety levels and an increase in levels of sedation before operation
[4]
  toxic side effects: without causing toxic side effects
[5]
  concentration to which melatonin can be dissolved: ≤ 300000 µg/mL
[1]; cumulative i.v. doses of 70 mg/kg
  effect on paw withdrawal threshold: dose-dependently increased paw withdrawal threshold
[1]
  estimated ED95 (and 95% CI) for loss of righting reflex: 312 (205-476) mg/kg
  effect on righting reflex, grip strength and eyelash reflex: progressive loss of righting reflex and grip strength, but did not appreciably blunt the eyelash reflex
[1]; i.v.
  doses at which the increase in paw withdrawal threshold was apparent: ≥ 140 mg/kg
[2]; single i.v. bolus 275 mg/kg
  time for which the increase in paw withdrawal threshold persisted: at least 20 min
[2]
  time for which loss of righting reflex and grip strength was maximal: 5 min
  effect on paw withdrawal threshold: increased paw withdrawal threshold as compared to vehicle
  effect on righting reflex and grip strength: immediate loss of righting reflex and grip strength
  time by which loss of righting reflex and grip strength resolved: ≤ 15 min
[6]; Rat 1, 250 mg/kg followed about 1 minute later by 65 mg/kg, Intralipid + Ringer's Lactate
  anesthetic effect (righting reflex): very drugged but did not lose righting reflex
[6]; Rat 1, 315 mg/kg, cyclodextrin 40% + Intralipid
  anesthetic effect (righting reflex): moves slowly but no loss of righting reflex
[6]; [8]
  anesthetic effect (ptosis, eye blink, paw pinch): ptosis, loss of eye blink response and loss of paw pinch response to a pressure of 60 mmHg
  time for which the righting reflex was lost: 27 min
[6]; Rat 2, 250 mg/kg, Intralipid + Ringer's Lactate
  anesthetic effect (righting reflex, eyelash reflex, hind paw pressure): loss of righting and eyelash reflexes and inability to pull his hind paw in response to pressure applied to it
[6]; [9]
  anesthetic effect (ptosis, eye blink): ptosis and loss of eye blink response
  time for which the righting reflex was lost: 15 min
[6]; Rat 2, 374 mg/kg, in 40% cyclodextrin, pressure of 60 mmHg
  paw pinch response: pulling his paw without vocalization
[6]; Rat 2, 460 mg/kg, cyclodextrin 40% + Intralipid
  anesthetic effect (righting reflex): loss of righting reflex
[6]; Rat 3, 320 mg/kg, Intralipid + Ringer's Lactate
  anesthetic effect (righting reflex, eyelash reflex, hind paw pressure): loss of righting and eyelash reflexes and inability to pull his hind paw in response to pressure applied to it
[6]; Rat 4, 370 mg/kg, Intralipid + Ringer's Lactate
  anesthetic effect (righting reflex, eyelash reflex, hind paw pressure): loss of righting and eyelash reflexes and inability to pull his hind paw in response to pressure applied to it

## COc1ccc2[nH]c(C(F)(F)F)c(CCNC(C)=O)c2c1 [2-trifluoromethylmelatonin]
[7]
  anesthetic effect relative to melatonin: substantially more active in anesthetic effect than melatonin itself
